Structures are written as SMILES. Bounds are passed on as bounds.

The experiment concerns the target T1, recombinant human MER (Homo sapiens, UniProt Q12866).
T1 construct: purchased Invitrogen
T1 sequence (Q12866 21-999): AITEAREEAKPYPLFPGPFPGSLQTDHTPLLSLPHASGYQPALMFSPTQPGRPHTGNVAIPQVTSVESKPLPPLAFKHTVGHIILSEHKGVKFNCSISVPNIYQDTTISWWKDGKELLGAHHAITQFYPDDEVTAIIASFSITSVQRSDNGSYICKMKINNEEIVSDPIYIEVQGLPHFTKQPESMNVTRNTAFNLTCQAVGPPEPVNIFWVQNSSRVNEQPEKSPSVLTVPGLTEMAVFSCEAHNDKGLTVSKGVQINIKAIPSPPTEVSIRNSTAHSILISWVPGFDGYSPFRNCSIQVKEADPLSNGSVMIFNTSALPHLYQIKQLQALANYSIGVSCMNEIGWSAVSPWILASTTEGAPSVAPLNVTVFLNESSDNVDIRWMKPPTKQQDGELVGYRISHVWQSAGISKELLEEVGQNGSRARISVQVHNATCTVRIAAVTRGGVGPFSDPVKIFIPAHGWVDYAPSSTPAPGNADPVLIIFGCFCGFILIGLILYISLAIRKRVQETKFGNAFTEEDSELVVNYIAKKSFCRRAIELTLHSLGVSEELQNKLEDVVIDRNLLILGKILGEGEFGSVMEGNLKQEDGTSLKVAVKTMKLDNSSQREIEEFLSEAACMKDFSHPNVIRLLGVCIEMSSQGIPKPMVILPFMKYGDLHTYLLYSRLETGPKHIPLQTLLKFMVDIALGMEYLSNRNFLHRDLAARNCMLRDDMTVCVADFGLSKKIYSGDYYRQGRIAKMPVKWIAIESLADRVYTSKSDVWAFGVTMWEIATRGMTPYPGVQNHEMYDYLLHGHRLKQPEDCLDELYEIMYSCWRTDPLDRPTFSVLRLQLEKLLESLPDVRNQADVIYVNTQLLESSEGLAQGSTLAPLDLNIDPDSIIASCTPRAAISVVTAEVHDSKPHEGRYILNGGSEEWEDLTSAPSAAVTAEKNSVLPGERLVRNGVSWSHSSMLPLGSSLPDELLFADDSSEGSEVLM
The experiment is described as follows: HTRF KinEASE-TK biochemical potency, MER. Particulars: 1 nM MER, 700 μM ATP. On the procedure: Purified recombinant human AXL, TYRO3 and MER proteins were purchased from Invitrogen™. 10 nM AXL, 2 nM TYRO3 or MER were incubated with varying concentrations of compounds in 50 mM HEPES, pH 7.4, 10 mM MgCl2, 0.01% BSA, 1 mM DTT and 2% DMSO in a total volume of 20 μl in a 384-well microplate (Corning™ #3640) at RT for 1 h. The AXL, TYRO3 and MER enzymatic reaction was initiated by transferring 10 μl of enzyme and compound mixture into 10 μl of 1.6 μM TK Substrate-biotin (HTRF® KinEASE-TK kit, Cisbio) and 1400 μM ATP pre-incubated in 50 mM HEPES, pH 7.4, 10 mM MgCl2, 0.01% BSA, 1 mM DTT in a 384-well microplate (Corning™ #3640) at RT, giving the final reaction conditions: 5 nM AXL, 1 nM TYRO3 or MER, 800 nM TK Substrate-biotin and 700 μM ATP in 50 mM HEPES, pH 7.4, 10 mM MgCl2, 0.01% BSA, 1 mM DTT and 1% DMSO with varying concentrations of compounds. Following 2 h incubation at RT, the AXL, TYRO3 and MER enzymatic reaction was stopped by transfer of 10 μl of reaction into 10 μl of detection mix (400 nM Streptavidin-XL665, 200-fold dilution TK Antibody-Cryptate and detection buffer, HTRF® KinEASE-TK kit, Cisbio) in a white 384-well microplate (Perkin Elmer, OptiPlate 384). After 1 h incubation at RT, the plate was put into a plate reader (Evision) to read at 665/620 nm (acceptor/donor) for HTRF. The value of the DMSO blank (MIN inhibition=100% activity) was used as a negative control. The positive control was established by adding 5 μl of enzyme and DMSO mixture into 10 μl of detection mix followed by addition of 5 μl of TK Substrate-biotin and ATP mixture (MAX inhibition=0% activity). To calculate the percent activity, Equation 1 was used. Ratio665/620 is the value at a given compound concentration: […]
Background: In TR-FRET formats the signal depends on donor and acceptor labels being close together.
For the compound `O=C1NCCOc2cc(-c3n[nH]c4ncc(-c5ccc6c(c5)CCC(N5CCC5)CC6)cc34)ccc21` (stereo not shown) [Example 52, 8-(5-(7-(Azetidin-1-yl)-6,7,8,9-tetrahydro-5H-benzo[7]annulen-2-yl)-1H-pyrazolo[3,4-b]pyridin-3-yl)-3,4-dihydrobenzo[f][1,4]oxazepin-5(2H)-one], the IC50 is < 100 nM.
The figure for `CC1(N2CCCC2)CCc2ccc(-c3cnc4[nH]nc(-c5ccc6c(c5)OCCNC6=O)c4c3)cc2CC1` (stereo not shown) [Example 22, 8-{5-[7-Methyl-7-(pyrrolidin-1-yl)-6,7,8,9-tetrahydro-5H-benzo[7]annulen-2-yl]-1H-pyrazolo[3,4-b]pyridin-3-yl}-2,3,4,5-tetrahydro-1,4-benzoxazepin-5-one] is < 100 nM; for `CC(C)C(=O)N1CCc2ccc(-c3cnc4[nH]nc(-c5ccc6c(c5)OCCNC6=O)c4c3)cc2CC1` [Example 16, 8-{5-[3-(2-Methylpropanoyl)-2,3,4,5-tetrahydro-1H-3-benzazepin-7-yl]-1H-pyrazolo[3,4-b]pyridin-3-yl}-2,3,4,5-tetrahydro-1,4-benzoxazepin-5-one] it is 100 to 1000 nM; for `O=C1NCCOc2cc(-c3n[nH]c4ncc(-c5ccc6c(c5)CCC(N5CCC[C@H]5CO)CC6)cc34)ccc21` (stereo partly drawn) [Example 50, 8-(5-{7-[(2S)-2-(Hydroxymethyl)pyrrolidin-1-yl]-6,7,8,9-tetrahydro-5H-benzo[7]annulen-2-yl}-1H-pyrazolo[3,4-b]pyridin-3-yl)-2,3,4,5-tetrahydro-1,4-benzoxazepin-5-one] it is < 100 nM.
The figure for `CC1(O)CCc2cc(-c3n[nH]c4ncc(-c5ccc6c(c5)CC[C@@H](N5CCCC5)CC6)cc34)ccc21` (stereo partly drawn) [Example 30, 1-Methyl-5-{5-[(7S)-7-(pyrrolidin-1-yl)-6,7,8,9-tetrahydro-5H-benzo[7]annulen-2-yl]-1H-pyrazolo[3,4-b]pyridin-3-yl}-2,3-dihydro-1H-inden-1-ol] is 100 to 1000 nM.
Next, `O=C1NCCOc2cc(-c3n[nH]c4ncc(-c5ccc6c(c5)CC[C@H](N5CCCC5)CC6)cc34)ccc21` (single isomer, unassigned) [Example 56]: 100 to 1000 nM; `CC1(O)CCOc2cc(-c3n[nH]c4ncc(-c5ccc6c(c5)CC[C@@H](N5CCCC5)CC6)cc34)ccc21` (stereo partly drawn) [Example 31, 4-Methyl-7-{5-[(7S)-7-(pyrrolidin-1-yl)-6,7,8,9-tetrahydro-5H-benzo[7]annulen-2-yl]-1H-pyrazolo[3,4-b]pyridin-3-yl}-3,4-dihydro-2H-1-benzopyran-4-ol]: 100 to 1000 nM.
For the compound `Cc1cc2c(cc1-c1cnc3[nH]nc(-c4ccc5c(c4)OCCNC5=O)c3c1)CCC(N1CCC[C@H]1C)CC2` (stereo partly drawn) [Example 64, 8-(5-{3-Methyl-7-[(2R)-2-methylpyrrolidin-1-yl]-6,7,8,9-tetrahydro-5H-benzo[7]annulen-2-yl}-1H-pyrazolo[3,4-b]pyridin-3-yl)-2,3,4,5-tetrahydro-1,4-benzoxazepin-5-one], the IC50 was < 100 nM.
The figure for `O=C1NCCOc2cc(-c3n[nH]c4ncc(-c5ccc6c(c5)CCN(C5CCCC5)C6)cc34)ccc21` [Example 9, 8-(5-(2-Cyclopentyl-1,2,3,4-tetrahydroisoquinolin-6-yl)-1H-pyrazolo[3,4-b]pyridin-3-yl)-3,4-dihydrobenzo[f][1,4]oxazepin-5(2H)-one] is < 100 nM; for `O=C1NCCOc2cc(-c3n[nH]c4ncc(-c5ccc6c(c5)CCC(N5CCCC5)C6)cc34)ccc21` (stereo not shown) [Example 2, 8-{5-[6-(Pyrrolidin-1-yl)-5,6,7,8-tetrahydronaphthalen-2-yl]-1H-pyrazolo[3,4-b]pyridin-3-yl}-2,3,4,5-tetrahydro-1,4-benzoxazepin-5-one] it is < 100 nM; for `C[C@@H]1CCCN1C1CCc2ccc(-c3cnc4[nH]nc(-c5ccc6c(c5)OCCNC6=O)c4c3)cc2CC1` (stereo partly drawn) [Example 44, 8-(5-{7-[(2R)-2-Methylpyrrolidin-1-yl]-6,7,8,9-tetrahydro-5H-benzo[7]annulen-2-yl}-1H-pyrazolo[3,4-b]pyridin-3-yl)-2,3,4,5-tetrahydro-1,4-benzoxazepin-5-one] it is < 100 nM.
The figure for `O=C1NCCOc2cc(-c3n[nH]c4ncc(-c5ccc6c(c5)CCC(N5CCC[C@@H]5CO)CC6)cc34)ccc21` (stereo partly drawn) [Example 49, 8-(5-{7-[(2R)-2-(Hydroxymethyl)pyrrolidin-1-yl]-6,7,8,9-tetrahydro-5H-benzo[7]annulen-2-yl}-1H-pyrazolo[3,4-b]pyridin-3-yl)-2,3,4,5-tetrahydro-1,4-benzoxazepin-5-one] is < 100 nM; for `O=C1NCCOc2cc(-c3n[nH]c4ncc(-c5ccc6c(c5)CNCC6)cc34)ccc21` [Example 55, 8-(5-(1,2,3,4-Tetrahydroisoquinolin-7-yl)-1H-pyrazolo[3,4-b]pyridin-3-yl)-3,4-dihydrobenzo[f][1,4]oxazepin-5(2H)-one] it is 100 to 1000 nM.
As to `O=C1NCCOc2cc(-c3n[nH]c4ncc(-c5ccc6c(c5)CC[C@@H](N5CCCC5)CC6)cc34)ccc21` (single isomer, unassigned) [Example 57], the IC50 was < 100 nM.
The figure for `CC1(C)COc2cc(-c3n[nH]c4ncc(-c5ccc6c(c5)CCC(N5CCCC5)CC6)cc34)ccc2C(=O)N1` (stereo not shown) [Example 35, 3,3-Dimethyl-8-{5-[7-(pyrrolidin-1-yl)-6,7,8,9-tetrahydro-5H-benzo[7]annulen-2-yl]-1H-pyrazolo[3,4-b]pyridin-3-yl}-2,3,4,5-tetrahydro-1,4-benzoxazepin-5-one] is < 100 nM; for `CC1(O)CCCCc2cc(-c3n[nH]c4ncc(-c5ccc6c(c5)CCN(C5CCCC5)CC6)cc34)ccc21` (stereo not shown) [Example 27, 2-[5-(3-Cyclopentyl-2,3,4,5-tetrahydro-1H-3-benzazepin-7-yl)-1H-pyrazolo[3,4-b]pyridin-3-yl]-5-methyl-6,7,8,9-tetrahydro-5H-benzo[7]annulen-5-ol] it is > 1000 nM.
The figure for `C[C@@H]1CCCN1C1CCc2ccc(-c3cnc4[nH]nc(-c5ccc6c(c5)OCC5(CCC5)NC6=O)c4c3)cc2CC1` (stereo partly drawn) [Example 37, 8-(5-{7-[(2R)-2-Methylpyrrolidin-1-yl]-6,7,8,9-tetrahydro-5H-benzo[7]annulen-2-yl}-1H-pyrazolo[3,4-b]pyridin-3-yl)-4,5-dihydro-2H-spiro[1,4-benzoxazepine-3,1′-cyclobutan]-5-one] is < 100 nM.
In the case of `CC1(C)NS(=O)(=O)c2cc(-c3n[nH]c4ncc(-c5ccc6c(c5)CCC(N5CCCC5)CC6)cc34)ccc21` (stereo not shown) [Example 32, 3,3-Dimethyl-6-{5-[7-(pyrrolidin-1-yl)-6,7,8,9-tetrahydro-5H-benzo[7]annulen-2-yl]-1H-pyrazolo[3,4-b]pyridin-3-yl}-2,3-dihydro-1λ^6,2-benzothiazole-1,1-dione], the 50% inhibitory concentration (IC50) is < 100 nM.
The figure for `O=C1NCCOc2cc(-c3n[nH]c4ncc(-c5ccc6c(c5)CN(C5CCCC5)CC6)cc34)ccc21` [Example 10, 8-(5-(2-Cyclopentyl-1,2,3,4-tetrahydroisoquinolin-7-yl)-1H-pyrazolo[3,4-b]pyridin-3-yl)-3,4-dihydrobenzo[f][1,4]oxazepin-5(2H)-one] is < 100 nM.

What is called IC50 is the concentration that inhibits the measured activity by half.

The values above are taken from patent US20240226115A1, “AXL INHIBITOR COMPOUNDS” (ARCUS BIOSCIENCES, INC., priority 2021, published 2024).
